# From publication PMC6547681 (Nature Communications, 2019)
# Biological target: BCL-2 G101V/E152A double mutant (Homo sapiens, UniProt P10415, E152A/G101V)
# Test: Steady-state competition SPR against immobilised BIMBH3 peptide, BCL-2 G101V/E152A double mutant
# Assay type: binding
# Method: SPR experiments were performed as previously described. […] The lowest concentrations used in direct binding experiments were 1 nM for BIAcore 4000 and 0.1 nM for BIAcore S200 instruments, concentrations below these were below the sensitivity thresholds for the instruments. […] Direct binding experiments were fitted to a 1:1 binding site kinetic model, fitting on and off rates, in BIAevaluation software. For competition experiments steady-state responses were determined in BIAevaluation software according to the software defaults in affinity evaluation mode averaging responses for 5 sec. […] All affinity measurements were performed in at least two independent experiments using independent protein preparations.
# Sequence of BCL-2 G101V/E152A double mutant (P10415 with tags, fused parts or gaps G101V/E152A): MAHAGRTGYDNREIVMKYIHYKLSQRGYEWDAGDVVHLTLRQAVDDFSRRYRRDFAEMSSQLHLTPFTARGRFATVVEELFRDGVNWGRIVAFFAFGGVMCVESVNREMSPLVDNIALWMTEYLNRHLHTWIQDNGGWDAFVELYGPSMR
smiles,measurement,setting,value
O=C(c1cc(-c2cc3c(cc2C(=O)N2Cc4ccccc4C[C@H]2CN2CCOCC2)OCO3)n2c1CCCC2)N(c1ccccc1)c1ccc(O)cc1 [S55746],Raw data values in Figure 3h (SPR response),"S55746 concentration 20, BCL-2 concentration 10 nM, independent experiment 1",30.4614
same,Raw data values in Figure 3h (SPR response),"S55746 concentration 20, BCL-2 concentration 10 nM, independent experiment 2",6.021
same,Raw data values in Figure 3h (SPR response),"S55746 concentration 20, BCL-2 concentration 20 nM, independent experiment 1",65.5037
same,Raw data values in Figure 3h (SPR response),"S55746 concentration 20, BCL-2 concentration 20 nM, independent experiment 2",18.8646
same,Raw data values in Figure 3h (SPR response),"S55746 concentration 20, BCL-2 concentration 30 nM, independent experiment 1",76.9824
same,Raw data values in Figure 3h (SPR response),"S55746 concentration 20, BCL-2 concentration 30 nM, independent experiment 2",27.9038
same,Raw data values in Figure 3h (SPR response),"S55746 concentration 20, BCL-2 concentration 40 nM, independent experiment 1",81.6304
same,Raw data values in Figure 3h (SPR response),"S55746 concentration 20, BCL-2 concentration 40 nM, independent experiment 2",34.3045
same,Raw data values in Figure 3h (SPR response),"S55746 concentration 20, BCL-2 concentration 50 nM, independent experiment 1",84.581
same,Raw data values in Figure 3h (SPR response),"S55746 concentration 20, BCL-2 concentration 50 nM, independent experiment 2",38.4913
same,Raw data values in Figure 3h (SPR response),"S55746 concentration 20, BCL-2 concentration 60 nM, independent experiment 1",86.8988
same,Raw data values in Figure 3h (SPR response),"S55746 concentration 20, BCL-2 concentration 60 nM, independent experiment 2",42.4602
same,Raw data values in Figure 3h (SPR response),"S55746 concentration 20, BCL-2 concentration 70 nM, independent experiment 1",87.9145
same,Raw data values in Figure 3h (SPR response),"S55746 concentration 20, BCL-2 concentration 70 nM, independent experiment 2",45.435
same,Raw data values in Figure 3h (SPR response),"S55746 concentration 20, BCL-2 concentration 80 nM, independent experiment 1",88.9424
same,Raw data values in Figure 3h (SPR response),"S55746 concentration 20, BCL-2 concentration 80 nM, independent experiment 2",47.8619
same,Raw data values in Figure 3h (SPR response),"S55746 concentration 20, BCL-2 concentration 100 nM, independent experiment 1",90.7371
same,Raw data values in Figure 3h (SPR response),"S55746 concentration 20, BCL-2 concentration 100 nM, independent experiment 2",52.9424
same,Raw data values in Figure 3h (SPR response),"S55746 concentration 20, BCL-2 concentration 150 nM, independent experiment 1",92.2147
same,Raw data values in Figure 3h (SPR response),"S55746 concentration 20, BCL-2 concentration 150 nM, independent experiment 2",60.437
same,Raw data values in Figure 3h (SPR response),"S55746 concentration 20, BCL-2 concentration 200 nM, independent experiment 1",94.1481
same,Raw data values in Figure 3h (SPR response),"S55746 concentration 20, BCL-2 concentration 200 nM, independent experiment 2",65.8724
same,Raw data values in Figure 3h (SPR response),"S55746 concentration 40, BCL-2 concentration 10 nM, independent experiment 1",10.773
same,Raw data values in Figure 3h (SPR response),"S55746 concentration 40, BCL-2 concentration 10 nM, independent experiment 2",1.948
same,Raw data values in Figure 3h (SPR response),"S55746 concentration 40, BCL-2 concentration 20 nM, independent experiment 1",28.9257
same,Raw data values in Figure 3h (SPR response),"S55746 concentration 40, BCL-2 concentration 20 nM, independent experiment 2",5.643
same,Raw data values in Figure 3h (SPR response),"S55746 concentration 40, BCL-2 concentration 30 nM, independent experiment 1",52.4298
same,Raw data values in Figure 3h (SPR response),"S55746 concentration 40, BCL-2 concentration 30 nM, independent experiment 2",13.0173
same,Raw data values in Figure 3h (SPR response),"S55746 concentration 40, BCL-2 concentration 40 nM, independent experiment 1",71.0654
same,Raw data values in Figure 3h (SPR response),"S55746 concentration 40, BCL-2 concentration 40 nM, independent experiment 2",23.2512
same,Raw data values in Figure 3h (SPR response),"S55746 concentration 40, BCL-2 concentration 50 nM, independent experiment 1",78.1857
same,Raw data values in Figure 3h (SPR response),"S55746 concentration 40, BCL-2 concentration 50 nM, independent experiment 2",30.4785
same,Raw data values in Figure 3h (SPR response),"S55746 concentration 40, BCL-2 concentration 60 nM, independent experiment 1",82.5478
same,Raw data values in Figure 3h (SPR response),"S55746 concentration 40, BCL-2 concentration 60 nM, independent experiment 2",36.3344
same,Raw data values in Figure 3h (SPR response),"S55746 concentration 40, BCL-2 concentration 70 nM, independent experiment 1",84.8279
same,Raw data values in Figure 3h (SPR response),"S55746 concentration 40, BCL-2 concentration 70 nM, independent experiment 2",40.4837
same,Raw data values in Figure 3h (SPR response),"S55746 concentration 40, BCL-2 concentration 80 nM, independent experiment 1",86.613
same,Raw data values in Figure 3h (SPR response),"S55746 concentration 40, BCL-2 concentration 80 nM, independent experiment 2",44.3565
same,Raw data values in Figure 3h (SPR response),"S55746 concentration 40, BCL-2 concentration 100 nM, independent experiment 1",88.6534
same,Raw data values in Figure 3h (SPR response),"S55746 concentration 40, BCL-2 concentration 100 nM, independent experiment 2",49.9278
same,Raw data values in Figure 3h (SPR response),"S55746 concentration 40, BCL-2 concentration 150 nM, independent experiment 1",91.2516
same,Raw data values in Figure 3h (SPR response),"S55746 concentration 40, BCL-2 concentration 150 nM, independent experiment 2",58.1685
same,Raw data values in Figure 3h (SPR response),"S55746 concentration 40, BCL-2 concentration 200 nM, independent experiment 1",92.8828
same,Raw data values in Figure 3h (SPR response),"S55746 concentration 40, BCL-2 concentration 200 nM, independent experiment 2",64.0843
same,Raw data values in Figure 3h (SPR response),"S55746 concentration 60, BCL-2 concentration 10 nM, independent experiment 1",8.7572
same,Raw data values in Figure 3h (SPR response),"S55746 concentration 60, BCL-2 concentration 10 nM, independent experiment 2",1.402
same,Raw data values in Figure 3h (SPR response),"S55746 concentration 60, BCL-2 concentration 20 nM, independent experiment 1",17.8604
same,Raw data values in Figure 3h (SPR response),"S55746 concentration 60, BCL-2 concentration 20 nM, independent experiment 2",2.802
same,Raw data values in Figure 3h (SPR response),"S55746 concentration 60, BCL-2 concentration 30 nM, independent experiment 1",29.7852
same,Raw data values in Figure 3h (SPR response),"S55746 concentration 60, BCL-2 concentration 30 nM, independent experiment 2",5.592
same,Raw data values in Figure 3h (SPR response),"S55746 concentration 60, BCL-2 concentration 40 nM, independent experiment 1",46.113
same,Raw data values in Figure 3h (SPR response),"S55746 concentration 60, BCL-2 concentration 40 nM, independent experiment 2",9.958
same,Raw data values in Figure 3h (SPR response),"S55746 concentration 60, BCL-2 concentration 50 nM, independent experiment 1",65.5161
same,Raw data values in Figure 3h (SPR response),"S55746 concentration 60, BCL-2 concentration 50 nM, independent experiment 2",18.5156
same,Raw data values in Figure 3h (SPR response),"S55746 concentration 60, BCL-2 concentration 60 nM, independent experiment 1",78.402
same,Raw data values in Figure 3h (SPR response),"S55746 concentration 60, BCL-2 concentration 60 nM, independent experiment 2",29.1548
same,Raw data values in Figure 3h (SPR response),"S55746 concentration 60, BCL-2 concentration 70 nM, independent experiment 1",82.48
same,Raw data values in Figure 3h (SPR response),"S55746 concentration 60, BCL-2 concentration 70 nM, independent experiment 2",34.7085
same,Raw data values in Figure 3h (SPR response),"S55746 concentration 60, BCL-2 concentration 80 nM, independent experiment 1",84.2763
same,Raw data values in Figure 3h (SPR response),"S55746 concentration 60, BCL-2 concentration 80 nM, independent experiment 2",38.0757
same,Raw data values in Figure 3h (SPR response),"S55746 concentration 60, BCL-2 concentration 100 nM, independent experiment 1",87.9314
same,Raw data values in Figure 3h (SPR response),"S55746 concentration 60, BCL-2 concentration 100 nM, independent experiment 2",45.7651
same,Raw data values in Figure 3h (SPR response),"S55746 concentration 60, BCL-2 concentration 150 nM, independent experiment 1",91.7815
same,Raw data values in Figure 3h (SPR response),"S55746 concentration 60, BCL-2 concentration 150 nM, independent experiment 2",56.7196
same,Raw data values in Figure 3h (SPR response),"S55746 concentration 60, BCL-2 concentration 200 nM, independent experiment 1",93.0262
same,Raw data values in Figure 3h (SPR response),"S55746 concentration 60, BCL-2 concentration 200 nM, independent experiment 2",63.1726
